Source: PMC8200971, “Design, Synthesis, Biological Evaluation and Silico Prediction of Novel Sinomenine Derivatives” (Molecules, 2021)

How the values were obtained:
[1] = test system: SW480 (human colon adenocarcinoma cell lines); test: CCK8 cytotoxicity assay; format: cell-based; details: Homo sapiens, SW480, 60 h; for IC50: read-out: IC50 SW480; for inhibition at 2.5 µM / inhibition at 25 µM: read-out: growth inhibition ratio (mean ± SD)
Experimental: (§1) Cytotoxicity screens were performed to assess the in vitro anticancer activity of the synthesized sinomenine derivatives 6a–6l on the various cancer cell lines MCF-7, Hela, SW480, and A549, as well as on Hek293 as a normal cell line, at doses of 2.5 and 25 μM. The obtained inhibition ratios data were used to construct a heat map (Figure 3, Tables S1 and S2) in order to select compounds that exert cancer cell line-specific cytotoxicity. Then, the IC50 values of the promising compound were determined. Cisplatin was used as a reference standard. The antiproliferative activity was based on the evaluation of the percent viability using the CCK8 assay, which is a rapid and sensitive method for determining the number of viable cells in culture. In the presence of electronic coupling reagents, WST-8 can be reduced by a dehydrogenase in the mitochondria to produce a highly water-soluble orange-yellow formazan product. Its color is proportional to the proliferation of the number of viable cells and is related to cytotoxicity. Using a microplate reader to measure the OD value can indirectly reflect the number of living cells at 450 nm wavelength.
(§2) To understand structure–function relationships, these selected compounds were subjected to subsequent analyses. All six compounds (6a and 6c–6g) were further examined to determine their IC50 concentrations on the previously mentioned cell lines, and their efficacy was compared to the reference drug cisplatin. For this, six compounds and cisplatin were evaluated on Hela, MCF-7, SW480, and A549, and on noncancerous Hek293 cell lines at various concentrations for 60 h. IC50 values were calculated (Table 2).
(§3) The MCF-7 (human breast cancer cell lines), Hela (human cervical cancer cell lines), SW480 (human colon adenocarcinoma cell lines), A549 (human lung adenocarcinoma cell lines) and nontoxic normal cells Hek293 (human embryonic kidney cell lines) cells were used to measure the cytotoxicity of the 6a–6l. They were obtained from the Beijing Normal University (Beijing, China). The test cell lines were cultured in DMEM, IMDM, F12 and DMEM nutrient medium containing 10% heat-inactivated fetal bovine serum, […] and 100 units/mL penicillin in a humified, 5% (v/v) CO2 atmosphere at 37 °C.
(§4) Cell viability was estimated using the CCK8 assay. Tumor cells ([…]) viz. MCF-7, Hela, SW480, A549 and nontoxic normal cells Hek293 were seeded in medium containing Corning® 96-well tissue culture plates at confluences of […], respectively, in Incucyte ZOOM. Fresh medium (100 μL) containing different concentrations of the test sample was added after 12 h of seeding. The microtiter plates were incubated at 37 °C in a humidified incubator with 5% CO2 for 60 h. Triplicates from each concentration were used. Negative control cells were incubated without sample and cisplatin as a positive control. At the end of treatment, the numbers of viable cells were determined by the CCK8 test. In brief, the media was removed from the 96 well plates and replaced with 100 μL of fresh culture medium with 10% CCK8 solution added to each well including the untreated controls. The 96 well plates were then incubated at 37 °C and 5% CO2 for 1–4 h. Then, the absorbance was measured at 450 nm using a BMG LABTECH®-POLAR star Omega microplate reader (Ortenberg, Germany) to determine the number of viable cells, and the percentage of viability was calculated as ((ODt- ODb/ODc- ODb)) × 100%, where ODt is the mean optical density of wells treated with the tested sample, ODc is the mean optical density of wells treated with DMSO and ODb is the mean optical density of PBS wells without cells. The relation between surviving cells and drug concentrations were plotted to get the survival curve of each tumor cell line after treatment with the specified compound. […]

[2] = test system: MCF-7 (human breast cancer cell lines); test: CCK8 cytotoxicity assay; format: cell-based; details: Homo sapiens, MCF7, 60 h; for IC50: read-out: IC50 MCF-7; for inhibition at 2.5 µM / inhibition at 25 µM: read-out: growth inhibition ratio (mean ± SD)
Experimental: as §1, §2, §3, §4

[3] = test system: Hela (human cervical cancer cell lines); test: CCK8 cytotoxicity assay; format: cell-based; details: Homo sapiens, HeLa, 60 h; for IC50: read-out: IC50 Hela; for inhibition at 2.5 µM / inhibition at 25 µM: read-out: growth inhibition ratio (mean ± SD)
Experimental: as §1, §2, §3, §4

[4] = test system: A549 (human lung adenocarcinoma cell lines); test: CCK8 cytotoxicity assay; format: cell-based; details: Homo sapiens, A549, 60 h; for IC50: read-out: IC50 A549; for inhibition at 2.5 µM / inhibition at 25 µM: read-out: growth inhibition ratio (mean ± SD)
Experimental: as §1, §2, §3, §4

[5] = test system: Hek293 (human embryonic kidney cell lines); test: CCK8 cytotoxicity assay, normal cells; format: cell-based; details: Homo sapiens, HEK293, 60 h; for IC50: read-out: IC50 Hek293; for inhibition at 2.5 µM / inhibition at 25 µM: read-out: growth inhibition ratio (mean ± SD)
Experimental: as §1, §2, §3, §4

Row | Compound | IC50 [1] [µM] | inhibition at 2.5 µM [1] [%] | inhibition at 25 µM [1] [%] | IC50 [2] [µM] | inhibition at 2.5 µM [2] [%] | inhibition at 25 µM [2] [%] | IC50 [3] [µM] | inhibition at 2.5 µM [3] [%] | inhibition at 25 µM [3] [%] | IC50 [4] [µM] | inhibition at 2.5 µM [4] [%] | inhibition at 25 µM [4] [%] | IC50 [5] [µM] | inhibition at 2.5 µM [5] [%] | inhibition at 25 µM [5] [%] | melting point [°C]
1 | COC1=C[C@@H]2[C@@H]3Cc4c(CN5CCCC5)cc(OC)c(OC(=O)Cc5cccc(Cl)c5)c4[C@]2(CCN3C)CC1=O [6e, (4bR,8aS,9S)-3,7-dimethoxy-11-methyl-6-oxo-1-(pyrrolidin-1-ylmethyl)-6,8a,9,10-tetrahydro-5H-9,4b-(epiminoethano)phenanthren-4-yl 2-(3-chlorophenyl)acetate] | > 25 | 29.4 ± 7.71 | 61 ± 7.14 | 14.9 ± 0.15 | 6.92 ± 2.62 | 77.85 ± 0.45 | 13.3 ± 0.95 | 3.21 ± 2.37 | 80.9 ± 2.05 | 17.9 ± 0.74 | 25.6 ± 1 | 61.06 ± 0.13 | 16.6 ± 0.64 | 14.4 ± 2.54 | 63.3 ± 11.4 | 68 to 72
2 | COC1=C[C@@H]2[C@@H]3Cc4c(CN5CCCC5)cc(OC)c(OC(=O)Cc5ccccc5C)c4[C@]2(CCN3C)CC1=O [6f, (4bR,8aS,9S)-3,7-dimethoxy-11-methyl-6-oxo-1-(pyrrolidin-1-ylmethyl)-6,8a,9,10-tetrahydro-5H-9,4b-(epiminoethano)phenanthren-4-yl 2-(o-tolyl)acetate] | > 25 | 20.8 ± 5.63 | 55.7 ± 6.94 | > 25 | 0 | 31.4 ± 3.72 | > 25 | 7.82 ± 4.1 | 58.7 ± 2.64 | 25.1 ± 1.72 | 25 ± 1.05 | 57.09 ± 0.06 | 10.1 ± 0.42 | 16.8 ± 2.39 | 64.3 ± 14.6 | 72 to 75
3 | COC1=C[C@@H]2[C@@H]3Cc4c(CN5CCCC5)cc(OC)c(OC(=O)Cc5ccc(Cl)c(Cl)c5)c4[C@]2(CCN3C)CC1=O [6g, (4bR,8aS,9S)-3,7-dimethoxy-11-methyl-6-oxo-1-(pyrrolidin-1-ylmethyl)-6,8a,9,10-tetrahydro-5H-9,4b-(epiminoethano)phenanthren-4-yl 2-(3,4-dichlorophenyl)acetate] | > 25 | 11.8 ± 7.5 | 56 ± 5.88 | > 25 | 6.59 ± 4.98 | 34.6 ± 2.06 | 11.9 ± 0.6 | 35.3 ± 4.37 | 93.85 ± 0.2 | > 25 | 20.3 ± 0.78 | 43.9 ± 1.11 | 4.71 ± 0.48 | 9.72 ± 1.96 | 59.9 ± 16.9 | 160 to 164
4 | COC1=C[C@@H]2[C@@H]3Cc4c(CN5CCCC5)cc(OC)c(OC(=O)Cc5ccccc5)c4[C@]2(CCN3C)CC1=O [6h, (4bR,8aS,9S)-3,7-dimethoxy-11-methyl-6-oxo-1-(pyrrolidin-1-ylmethyl)-6,8a,9,10-tetrahydro-5H-9,4b-(epiminoethano)phenanthren-4-yl 2-phenylacetate] | – | 28.2 ± 10.3 | 37.8 ± 9.83 | – | 5.79 ± 10 | 0 | – | 11.2 ± 10 | 21.2 ± 4.4 | – | 20.6 ± 0.77 | 52.3 ± 0.76 | – | 17.4 ± 1.49 | 46 ± 22.4 | 165 to 168
5 | COC1=C[C@@H]2[C@@H]3Cc4c(CN5CCCC5)cc(OC)c(OC(=O)Cc5ccc(OC)cc5)c4[C@]2(CCN3C)CC1=O [6i, (4bR,8aS,9S)-3,7-dimethoxy-11-methyl-6-oxo-1-(pyrrolidin-1-ylmethyl)-6,8a,9,10-tetrahydro-5H-9,4b-(epiminoethano)phenanthren-4-yl 2-(4-methoxyphenyl)acetate] | – | 28.6 ± 9.02 | 38.9 ± 9.65 | – | 11.7 ± 5.99 | 0 | – | 7.79 ± 6.01 | 29.2 ± 5.29 | – | 23.5 ± 0.76 | 51.77 ± 0.5 | – | 13.3 ± 0.21 | 46.9 ± 16.7 | 76 to 79
6 | COC1=C[C@@H]2[C@@H]3Cc4c(CN5CCCC5)cc(OC)c(OC(=O)Cc5ccc([N+](=O)[O-])cc5)c4[C@]2(CCN3C)CC1=O [6j, (4bR,8aS,9S)-3,7-dimethoxy-11-methyl-6-oxo-1-(pyrrolidin-1-ylmethyl)-6,8a,9,10-tetrahydro-5H-9,4b-(epiminoethano)phenanthren-4-yl 2-(4-nitrophenyl)acetate] | – | 0 | 0.92 ± 1.34 | – | 3.64 ± 6.3 | 1.97 ± 2.75 | – | 0 | 3.75 ± 0.91 | – | 15.4 ± 5.6 | 38.7 ± 8.59 | – | 20.5 ± 6.76 | 56.1 ± 7.28 | 82 to 85
7 | COC1=C[C@@H]2[C@@H]3Cc4c(CN5CCCC5)cc(OC)c(OC(=O)Cc5ccccc5OC)c4[C@]2(CCN3C)CC1=O [6k, (4bR,8aS,9S)-3,7-dimethoxy-11-methyl-6-oxo-1-(pyrrolidin-1-ylmethyl)-6,8a,9,10-tetrahydro-5H-9,4b-(epiminoethano)phenanthren-4-yl 2-(2-methoxyphenyl)acetate] | – | 3.72 ± 1.8 | 36.9 ± 0.52 | – | 0.75 ± 1.29 | 24.4 ± 11 | – | 0 | 44.1 ± 0.92 | – | 16.6 ± 2.3 | 51.9 ± 6.36 | – | 13.9 ± 4.06 | 63.5 ± 10.2 | 180 to 182
8 | COC1=C[C@@H]2[C@@H]3Cc4c(CN5CCCC5)cc(OC)c(OC(=O)Cc5ccccc5F)c4[C@]2(CCN3C)CC1=O [6l, (4bR,8aS,9S)-3,7-dimethoxy-11-methyl-6-oxo-1-(pyrrolidin-1-ylmethyl)-6,8a,9,10-tetrahydro-5H-9,4b-(epiminoethano)phenanthren-4-yl 2-(2-fluorophenyl)acetate] | – | 3.91 ± 0.85 | 16.5 ± 0.53 | – | 4.61 ± 4.79 | 9.52 ± 8.26 | – | 0.61 ± 0.6 | 29 ± 1.88 | – | 13.2 ± 4.88 | 47.1 ± 5.4 | – | 12.7 ± 2.89 | 68.8 ± 13.3 | 178 to 180
